For orientation: melting point means the temperature, or range, at which the solid turns liquid. By Ki is commonly meant a dissociation constant, usually derived from enzyme kinetics or from competition with a known ligand. Lower therefore signals higher affinity.

One data set deals with hCA I (Homo sapiens, UniProt P00915). The data set is described as follows: stopped-flow CO2 hydrase assay, hCA I. The settings on record: mean from three assays, stopped-flow technique, errors ± 5–10%.
A further data set has as its target hCA II (Homo sapiens, UniProt P00918). The data set is described as follows: stopped-flow CO2 hydrase assay, hCA II.
A further data set has as its target hCA IV (Homo sapiens, UniProt P22748). The data set is described as follows: stopped-flow CO2 hydrase assay, hCA IV.
The target of a further data set is hCA IX (Homo sapiens, UniProt Q16790). The data set can be described thus: stopped-flow CO2 hydrase assay, hCA IX. The settings on record: for Selectivity index I/IX: ratio KI hCA I / KI hCA IX; for Selectivity index II/IX: ratio KI hCA II / KI hCA IX.

Structures are written as SMILES.

Chain of hCA IV (P22748 19-312): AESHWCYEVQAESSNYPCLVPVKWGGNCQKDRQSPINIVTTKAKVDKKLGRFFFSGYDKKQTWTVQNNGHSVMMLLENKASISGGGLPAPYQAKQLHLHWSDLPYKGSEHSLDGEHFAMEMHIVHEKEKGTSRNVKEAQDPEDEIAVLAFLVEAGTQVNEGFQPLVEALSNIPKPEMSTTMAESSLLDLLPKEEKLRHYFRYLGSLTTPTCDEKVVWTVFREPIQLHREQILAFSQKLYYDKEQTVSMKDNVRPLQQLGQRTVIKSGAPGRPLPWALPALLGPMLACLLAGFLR
Chain of hCA I (P00915 whole entry): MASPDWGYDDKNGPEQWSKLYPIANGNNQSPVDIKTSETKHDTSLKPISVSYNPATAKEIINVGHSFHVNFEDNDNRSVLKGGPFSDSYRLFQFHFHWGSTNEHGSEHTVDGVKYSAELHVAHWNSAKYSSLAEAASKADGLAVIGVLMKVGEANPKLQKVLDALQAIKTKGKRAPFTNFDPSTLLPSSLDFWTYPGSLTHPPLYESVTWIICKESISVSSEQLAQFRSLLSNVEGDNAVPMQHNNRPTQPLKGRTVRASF
Description for hCA II: (§1) An Sx.18Mv-R Applied Photophysics (Oxford, UK) stopped-flow instrument was used to assay the catalytic activity of various CA isozymes for CO2 hydration reaction.[21]
Description for hCA IV: as §1
Description for hCA IX: as §1

`NS(=O)(=O)c1ccc(-n2nnc(S(=O)(=O)c3ccccc3)c2-c2ccc(-c3ccccc3)cc2)cc1` [Compound 9k, 4-(5-([1,1′-biphenyl]-4-yl)-4-(phenylsulphonyl)-1H-1,2,3-triazol-1-yl)benzenesulphonamide] registered a melting point of 214 to 216 °C. Besides, at hCA I, the inhibitory constant (Ki) was determined as 3540 nM. The same molecule registered a Ki on hCA II of 833 nM. The inhibition constant Ki on hCA IV is 414 nM. Moreover, at hCA IX, the affinity corresponds to a Ki of 24.8 nM, the “selectivity for hCA IX over hCA I” value is on record as “more than 100 fold”, the “selectivity for hCA IX over hCA II” value is reported as “more than 30 fold” and the “Selectivity index I/IX” value turned out to be 142.86. In addition, the “Selectivity index II/IX” value on hCA IX was 33.60.
Regarding `NS(=O)(=O)c1cccc(-n2nnc(S(=O)(=O)c3ccccc3)c2-c2ccccc2)c1` [Compound 10a, 3-(5-phenyl-4-(phenylsulphonyl)-1H-1,2,3-triazol-1-yl)benzenesulphonamide], the melting point lay in the range of 172 to 174 °C. The molecule also showed a Ki on hCA I of 607 nM. This molecule yielded a Ki on hCA II of 161 nM. Moreover, the affinity at hCA IV corresponds to a Ki of 78.6 nM. At hCA IX, the affinity corresponds to a Ki of 26 nM, the “Selectivity index I/IX” value is 23.35 and the “Selectivity index II/IX” value is listed as 6.20.
Molecule `Cc1ccc(-c2c(S(=O)(=O)c3ccccc3)nnn2-c2cccc(S(N)(=O)=O)c2)cc1` [Compound 10b, 3-(4-(phenylsulphonyl)-5-(p-tolyl)-1H-1,2,3-triazol-1-yl)benzenesulphonamide] yielded a melting point of 186 to 188 °C. The same molecule had an inhibitory constant (Ki) at hCA I of 566 nM. Also, the Ki on hCA II came out at 21.8 nM. Also, the Ki at hCA IV worked out at 347 nM. Also, at hCA IX, the Ki is 21.2 nM, the “Selectivity index I/IX” value was found to be 26.71 and the “Selectivity index II/IX” value turned out to be 1.03.
On to `NS(=O)(=O)c1cccc(-n2nnc(S(=O)(=O)c3ccccc3)c2-c2ccc(Br)cc2)c1` [Compound 10e, 3-(5-(4-bromophenyl)-4-(phenylsulphonyl)-1H-1,2,3-triazol-1-yl)benzenesulphonamide], for which the melting point is 96 to 98 °C. The affinity on hCA I, expressed as Ki, was 636 nM. In addition, the Ki on hCA II is 138 nM. Besides, the inhibitory constant (Ki) on hCA IV turned out to be 80.1 nM. On hCA IX, the affinity corresponds to a Ki of 25.1 nM, the “Selectivity index I/IX” value came to 25.33 and the “Selectivity index II/IX” value turned out to be 5.50.
In turn, `NS(=O)(=O)c1cccc(-n2nnc(S(=O)(=O)c3ccccc3)c2-c2cccc(Br)c2)c1` [Compound 10f, 3-(5-(3-bromophenyl)-4-(phenylsulphonyl)-1H-1,2,3-triazol-1-yl)benzenesulphonamide] came in with a melting point of 97 to 99 °C. The same molecule yielded a Ki on hCA I of 689 nM. At hCA II, this molecule came in with an inhibitory constant (Ki) of 370 nM. The Ki on hCA IV was 84.3 nM. Also, at hCA IX, the Ki worked out at 28.6 nM, the “Selectivity index I/IX” value came out at 24.10 and the “Selectivity index II/IX” value worked out at 12.93.
For `NS(=O)(=O)c1cccc(-n2nnc(S(=O)(=O)c3ccccc3)c2-c2ccc(-c3ccccc3)cc2)c1` [Compound 10k, 3-(5-([1,1′-biphenyl]-4-yl)-4-(phenylsulphonyl)-1H-1,2,3-triazol-1-yl)benzenesulphonamide], the melting point lay within 74 to 76 °C. For the same molecule, the inhibition constant Ki on hCA I stood at 2060 nM. Besides, the affinity at hCA II, expressed as Ki, was 211 nM. In addition, at hCA IV, the Ki turned out to be 849 nM. On hCA IX, the Ki was determined as 22.6 nM, the “Selectivity index I/IX” value is 91.02 and the “Selectivity index II/IX” value stood at 9.33.

Source of the values: PMC9154810, “Selective inhibition of carbonic anhydrase IX by sulphonylated 1,2,3-triazole incorporated benzenesulphonamides capable of inducing apoptosis” (Journal of Enzyme Inhibition and Medicinal Chemistry, 2022).
